Assay results as given in ChEMBL document CHEMBL2413072, “Synthesis and in vitro anticancer studies of novel C-2 arylidene congeners of lantadenes” (2013).

How the values were obtained:
Type in all cases: functional
NCI-H226 = experiment: Growth inhibition of human NCI-H226 cells by sulforhodamine B assay
K562 = experiment: Growth inhibition of human K562 cells by sulforhodamine B assay
IGROV-1 = experiment: Growth inhibition of human IGROV1 cells assessed as cell growth at 10^-8 M by sulforhodamine B assay; conditions: read-out: Activity
UACC-62 = experiment: Growth inhibition of human UACC62 cells assessed as cell growth at 10^-8 M by sulforhodamine B assay; conditions: read-out: Activity
NCI-H522 = experiment: Growth inhibition of human NCI-H522 cells assessed as cell growth at 10^-8 M by sulforhodamine B assay; conditions: read-out: Activity
NCI-H23 = experiment: Growth inhibition of human NCI-H23 cells assessed as cell growth at 10^-8 M by sulforhodamine B assay; conditions: read-out: Activity
RPMI-8226 = experiment: Growth inhibition of human RPMI8226 cells assessed as cell growth at 10^-8 M by sulforhodamine B assay; conditions: read-out: Activity
UO-31 = experiment: Growth inhibition of human UO31 cells by sulforhodamine B assay
SN12C = experiment: Growth inhibition of human SN12C cells by sulforhodamine B assay
OVCAR-5 = experiment: Growth inhibition of human OVCAR5 cells by sulforhodamine B assay
SK-MEL-28 = experiment: Growth inhibition of human SK-MEL-28 cells by sulforhodamine B assay
[1] = read-out: LC50 (the source's name)
[2] = read-out: pLC50 (the source's name) (converted)

**Q.** For `CC(C)=CC(=O)O[C@@H]1CC(C)(C)C[C@H]2C3=CC[C@@H]4[C@@]5(C)CCC(=O)C(C)(C)[C@@H]5CC[C@@]4(C)[C@]3(C)CC[C@@]12C(=O)O`, which GI50 (NCI-H226; read-out: GI50) is on record?
**A.** The GI50 was 5.68 µM.

**Q.** What about the LC50 (NCI-H226; read-out: LC50) of the same molecule?
**A.** The LC50 was greater than 100 µM.

**Q.** What about the TGI (NCI-H226; read-out: TGI) of the same molecule?
**A.** Its TGI is greater than 100 µM.

**Q.** And the GI50 (NCI-H226; read-out: pGI50 (converted))?
**A.** The GI50 was 5.62 µM.

**Q.** And the LC50 (NCI-H226; read-out: pLC50 (converted))?
**A.** Its LC50 is greater than 100 µM.

**Q.** What about the TGI (NCI-H226; read-out: pTGI (converted)) of the same molecule?
**A.** The TGI was greater than 100 µM.

**Q.** What about the GI50 (K562; read-out: GI50) of the same molecule?
**A.** Its GI50 is 3.47 µM.

**Q.** And the LC50 (K562; read-out: LC50)?
**A.** The LC50 was greater than 100 µM.

**Q.** What about the TGI (K562; read-out: TGI) of the same molecule?
**A.** The TGI was greater than 100 µM.

**Q.** And the GI50 (K562; read-out: pGI50 (converted))?
**A.** Its GI50 is 3.47 µM.

**Q.** And the LC50 (K562; read-out: pLC50 (converted))?
**A.** The LC50 was greater than 100 µM.

**Q.** What about the TGI (K562; read-out: pTGI (converted)) of the same molecule?
**A.** Its TGI is greater than 100 µM.

**Q.** And the growth at 0.01 µM (IGROV-1)?
**A.** Its growth at 0.01 µM is 103%.

**Q.** And the growth at 0.01 µM (UACC-62)?
**A.** Its growth at 0.01 µM is 102%.

**Q.** What about the growth at 0.01 µM (NCI-H522) of the same molecule?
**A.** Its growth at 0.01 µM is 102%.

**Q.** And the growth at 0.01 µM (NCI-H23)?
**A.** The growth at 0.01 µM was 94%.

**Q.** And the growth at 0.01 µM (RPMI-8226)?
**A.** Its growth at 0.01 µM is 101%.

**Q.** What about the GI50 (UO-31; read-out: GI50) of the same molecule?
**A.** The GI50 was 2.95 µM.

**Q.** What about the CC50 (UO-31; [1]) of the same molecule?
**A.** The CC50 was greater than 100 µM.

**Q.** What about the TGI (UO-31; read-out: TGI) of the same molecule?
**A.** The TGI was 32.2 µM.

**Q.** What about the GI50 (UO-31; read-out: pGI50 (converted)) of the same molecule?
**A.** Its GI50 is 2.95 µM.

**Q.** What about the CC50 (UO-31; [2]) of the same molecule?
**A.** The CC50 was greater than 100 µM.

**Q.** What about the TGI (UO-31; read-out: pTGI (converted)) of the same molecule?
**A.** Its TGI is 32.4 µM.

**Q.** And the GI50 (SN12C; read-out: GI50)?
**A.** Its GI50 is 3.12 µM.

**Q.** What about the CC50 (SN12C; [1]) of the same molecule?
**A.** Its CC50 is greater than 100 µM.

**Q.** What about the TGI (SN12C; read-out: TGI) of the same molecule?
**A.** Its TGI is 21.8 µM.

**Q.** What about the GI50 (SN12C; read-out: pGI50 (converted)) of the same molecule?
**A.** Its GI50 is 3.09 µM.

**Q.** What about the CC50 (SN12C; [2]) of the same molecule?
**A.** The CC50 was greater than 100 µM.

**Q.** What about the TGI (SN12C; read-out: pTGI (converted)) of the same molecule?
**A.** The TGI was 21.9 µM.

**Q.** What about the GI50 (OVCAR-5; read-out: GI50) of the same molecule?
**A.** Its GI50 is 6.53 µM.

**Q.** And the CC50 (OVCAR-5; [1])?
**A.** The CC50 was greater than 100 µM.

**Q.** What about the TGI (OVCAR-5; read-out: TGI) of the same molecule?
**A.** Its TGI is 32.7 µM.

**Q.** What about the GI50 (OVCAR-5; read-out: pGI50 (converted)) of the same molecule?
**A.** Its GI50 is 6.61 µM.

**Q.** What about the CC50 (OVCAR-5; [2]) of the same molecule?
**A.** Its CC50 is greater than 100 µM.

**Q.** And the TGI (OVCAR-5; read-out: pTGI (converted))?
**A.** Its TGI is 32.4 µM.

**Q.** And the GI50 (SK-MEL-28; read-out: GI50)?
**A.** Its GI50 is 11.6 µM.

**Q.** And the CC50 (SK-MEL-28; [1])?
**A.** Its CC50 is greater than 100 µM.
